{
  "source": "patent US20240122878A1",
  "about": "(priority 2021, published 2024)",
  "key": {"[1]": {"conditions": "cited from earlier work"}, "healthy volunteers": {"system": "healthy volunteers", "assay": "Phase 1 study esmethadone-112 concentration-QTc sub-analysis", "assay_type": "in vivo, human"}, "[2]": {"assay": "Phase 2a study plasma pharmacokinetics", "assay_type": "in vivo, human", "conditions": "for Cmax: human, in vivo, C-QTc population", "protocol": "(§1) Timed PK assessments were performed on Day 1 and after approximately 23 hours post Day 1 dosing, and thus for the exposure-response analysis only the Day 1 ECG data is utilized.\nPK sampling was done on Day 1 at 1 hour pre-dose and 0.5, 1, 2, 4, 6, 8, and 12 hours post-dose. On Day 2 through Day 7, sampling was done 1 hour pre-dose. On Day 8, sampling was done approximately 24 hours after the last dose of study drug (on Day 7). On Day 9, sampling was done approximately 48 hours after the last dose (on Day 7).\n(§2) The geometric mean of the individual Cmax values for patients in each of the active dose groups was determined."}, "[3]": {"system": "patients with major depressive disorder", "assay": "Phase 2a cardiodynamic ECG evaluation (concentration-QTc and by-time point analysis)", "assay_type": "in vivo, human", "protocol": "as §1\nThe 12-lead digital ECG equipment was supplied and supported by the central ECG core lab vendor, eResearch Technology, Inc., ERT (Philadelphia, PA). After a supine rest period, ECGs were collected in triplicate at the pre-specific time points indicated within the study protocol and described below.\nTwelve-lead ECGs were to be performed in triplicate approximately 1 minute apart after lying quietly for at least 3 min at: • Screening • Check-in (Day—1) • Day 1: 1 hour pre-dose and 2 hours, 4 hours, 6 hours, and 8 hours post-dose on Day 1 • Day 2: 1 hour pre-dose (corresponding to 23 hours post-dose on Day 1) and 2 hours, 4 hours, 6 hours, and 8 hours post-dose • Days 3-7: 2 hours post-dose • Day 8 • Prior to discharge on Day 9 • End of the observation period (Day 14)\nThe QT and RR value for each measured beat were used for HR correction. Three beats were measured on each of the triplicate ECGs at each time point. The mean value from each triplicate tracing was calculated, and then the mean of all available measurements from a nominal time point were used as the patient's reportable value at that time point. • 5. ECG Methodology: Central Laboratory\n[published correction appears in J Pharmacokinet Pharmacodyn. […] J Pharmacokinet Pharmacodyn. […] In all calculations, concentrations in patients who received placebo were set to zero.\nas §2\nAn unstructured covariance matrix was specified for the repeated measures at post-dose time points within patient."}, "hERG": {"target": "hERG (Homo sapiens, UniProt Q12809)", "sequence (Q12809 whole entry)": "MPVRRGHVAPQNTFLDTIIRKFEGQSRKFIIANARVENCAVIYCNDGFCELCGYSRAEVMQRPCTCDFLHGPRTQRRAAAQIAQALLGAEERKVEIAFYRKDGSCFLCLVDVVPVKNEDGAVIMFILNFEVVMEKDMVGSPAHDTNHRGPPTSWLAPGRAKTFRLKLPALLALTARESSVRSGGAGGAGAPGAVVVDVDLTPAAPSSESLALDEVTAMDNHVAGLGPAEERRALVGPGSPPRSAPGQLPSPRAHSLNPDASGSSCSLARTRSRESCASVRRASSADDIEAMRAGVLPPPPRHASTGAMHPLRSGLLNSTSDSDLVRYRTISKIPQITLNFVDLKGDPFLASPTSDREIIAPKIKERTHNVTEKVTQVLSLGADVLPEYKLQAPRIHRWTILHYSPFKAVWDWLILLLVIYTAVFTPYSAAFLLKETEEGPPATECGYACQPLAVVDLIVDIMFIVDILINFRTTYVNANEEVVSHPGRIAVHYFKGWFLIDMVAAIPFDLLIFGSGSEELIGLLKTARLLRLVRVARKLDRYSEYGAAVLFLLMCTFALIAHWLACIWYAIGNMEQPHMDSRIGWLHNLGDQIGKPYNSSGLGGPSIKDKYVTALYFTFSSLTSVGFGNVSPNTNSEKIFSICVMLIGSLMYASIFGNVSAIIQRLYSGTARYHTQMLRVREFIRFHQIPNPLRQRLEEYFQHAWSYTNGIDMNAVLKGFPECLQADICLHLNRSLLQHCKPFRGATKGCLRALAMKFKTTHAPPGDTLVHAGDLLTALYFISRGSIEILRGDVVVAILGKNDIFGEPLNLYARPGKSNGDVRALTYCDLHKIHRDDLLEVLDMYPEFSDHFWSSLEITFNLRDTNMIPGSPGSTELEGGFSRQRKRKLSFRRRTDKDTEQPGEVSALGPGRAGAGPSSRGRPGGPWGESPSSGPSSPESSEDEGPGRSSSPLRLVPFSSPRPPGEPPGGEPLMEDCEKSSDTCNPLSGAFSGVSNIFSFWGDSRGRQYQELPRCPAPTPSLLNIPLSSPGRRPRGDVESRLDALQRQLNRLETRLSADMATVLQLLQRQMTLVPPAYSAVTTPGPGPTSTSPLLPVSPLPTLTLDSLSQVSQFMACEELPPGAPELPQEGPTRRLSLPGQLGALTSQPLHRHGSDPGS", "assay": "GLP hERG channel current study of esmethadone", "conditions": "human"}, "[4]": {"target": "hERG (human ether-à-go-go-related gene) channel current (Homo sapiens, UniProt Q12809)", "sequence (Q12809 whole entry)": "as above", "assay": "GLP hERG channel current study of esmethadone"}, "[5]": {"assay": "Phase 1 pharmacokinetics of immediate release esmethadone (Bernstein 2019)", "assay_type": "in vivo", "conditions": "human, plasma; 25 mg oral daily dosing ×10 days; read-out: Steady state Cmax", "protocol": "[…]. […] Therefore, dose proportionality and linearity after oral administration of each of the three molecules, based on the data from Bernstein 2019 and Foster 2004 are expected. […].\nSteady state Curough concentrations (measured at Day 10) were 142.7, 326.2 and 338.8 ng/ml respectively."}, "[6]": {"conditions": "linear mixed-effects model, C-QTc population"}},
  "note": "Several values for one entry are separate records, joined by “and”; a condition that tells them apart may be missing. Equal entries are not always repeated. Where two headings read alike, the source gives them in different places.",
  "data": [
    {"molecule": "CCC(=O)C(C[C@H](C)N(C)C)(c1ccccc1)c1ccccc1", "note": "[esmethadone]", "values": [
      {"measurement": "Steady state Ctrough concentration (Day 10)", "setting": "[1]; 25 mg", "result": 142.7, "unit": "ng/mL"},
      {"measurement": "Steady state Ctrough concentration (Day 10)", "setting": "[1]; 50 mg", "result": 326.2, "unit": "ng/mL"},
      {"measurement": "Steady state Ctrough concentration (Day 10)", "setting": "[1]; 75 mg", "result": 338.8, "unit": "ng/mL"},
      {"measurement": "Effect on HR", "setting": "healthy volunteers; Day 10", "result": "mild HR slowing"},
      {"measurement": "Peak ΔΔQTcF, time-based central tendency analysis", "setting": "healthy volunteers; Day 10, 25 mg cohort", "result": 11.5, "unit": "ms"},
      {"measurement": "Peak ΔΔQTcF, time-based central tendency analysis", "setting": "healthy volunteers; Day 10, 50 mg QD cohort", "result": 26.8, "unit": "ms"},
      {"measurement": "Peak ΔΔQTcF, time-based central tendency analysis", "setting": "healthy volunteers; Day 10, 75 mg QD cohort", "result": 28.8, "unit": "ms"},
      {"measurement": "Subjects with pronounced QTcF prolongation (QTcF>60 ms or absolute QTcF>480 ms)", "setting": "healthy volunteers; categorical analysis, any treatment group", "result": "no subjects"},
      {"measurement": "Effects on the PR or QRS intervals", "setting": "healthy volunteers; in vivo", "result": "no clinically meaningful effects"},
      {"measurement": "Highest PK values on Day 1", "setting": "[2]; 25 mg (75 mg Day 1)", "result": 254.5, "unit": "ng/mL"},
      {"measurement": "Highest PK values on Day 1", "setting": "[2]; 50 mg (100 mg Day 1)", "result": 343.9, "unit": "ng/mL"},
      {"measurement": "Cmax", "setting": "[2]; 25 mg QD group, Day 1 after 75 mg loading dose", "result": 265, "unit": "ng/mL"},
      {"measurement": "Cmax", "setting": "[2]; 50 mg QD group, Day 1 after 100 mg loading dose", "result": 338, "unit": "ng/mL"},
      {"measurement": "Model-predicted ΔΔQTcF at 10 ms Threshold concentration", "setting": "[3]; 300 ng/ml, linear model, (90% CI)", "result": "7.18 (4.36, 10.00) ms"},
      {"measurement": "Model-predicted ΔΔQTcF at geometric mean Cmax", "setting": "[3]; 25 mg QD group after 75 mg loading dose, 265.2 ng/mL, linear model, (90% CI)", "result": "6.7 ms and 6.71 ms and 6.71 (3.94, 9.48) ms"},
      {"measurement": "Maximum LS mean ΔΔQTcF, by-time point analysis", "setting": "[3]; 25 mg dose group (75 mg loading), Day 2 pre-dose time point", "result": 7.7, "unit": "ms"},
      {"measurement": "Model-predicted ΔΔQTcF at geometric mean Cmax", "setting": "[3]; 50 mg QD group after 100 mg loading dose, 337.8 ng/mL, linear model, (90% CI)", "result": "7.7 ms and 7.69 ms and 7.69 (4.80, 10.58) ms"},
      {"measurement": "Maximum LS mean ΔΔQTcF, by-time point analysis", "setting": "[3]; 50 mg dose group (100 mg loading), Day 1, 8 hour time point", "result": 10.9, "unit": "ms"},
      {"measurement": "Slope of the concentration-QTc relationship (esmethadone Slope)", "setting": "[3]; [6]", "result": 0.014, "unit": "ms per ng/mL"},
      {"measurement": "Treatment effect-specific intercept (Treatment Effect)", "setting": "[3]; [6]", "result": 3.11, "unit": "ms"},
      {"measurement": "ECG morphology changes", "setting": "[3]; studied doses", "result": "no clinically significant ECG morphology changes"},
      {"measurement": "Effect on QTc", "setting": "[3]; studied doses", "result": "modest, dose-dependent increase in QTc"},
      {"measurement": "Effect on heart rate, PR, or QRS", "setting": "[3]; studied doses", "result": "no clinically significant effect"},
      {"measurement": "inhibition at 0.3 µM", "setting": "hERG", "result": "27.3 ± 1.6", "unit": "%"},
      {"measurement": "inhibition at 1 µM", "setting": "hERG", "result": "48.8 ± 3.4", "unit": "%"},
      {"measurement": "inhibition at 3 μM", "setting": "hERG", "result": "68.6 ± 0.3", "unit": "%"},
      {"measurement": "inhibition at 10 µM", "setting": "hERG", "result": "88.6 ± 0.7", "unit": "%"},
      {"measurement": "IC50", "setting": "[4]", "result": 1, "unit": "µM"},
      {"measurement": "Hill coefficient", "setting": "[4]; GLP study", "result": 0.8},
      {"measurement": "Cmax", "setting": "[5]", "result": 273, "unit": "ng/mL"}
    ]}
  ]
}
